Data set [1] is described as follows: Presence of prodrug in mouse and absorbency (plasma AUC after oral administration). In kind it is in vivo. To be noted: male, Balb/cA, mouse, 9.9 umol/kg, mice, 9.9 μmol/kg, administered compound itself in plasma, read-out: AUC0-6hr. As for the experimental part: The dosage amounts of the compounds of Comparative Examples 1 to 5 and Examples 1 to 26 are those (mole/10 mL/kg) shown in Tables. Solutions for administration were prepared with an 0.5% aqueous solutions of HPMC so as to satisfy the dosage amounts.
Note that, the “amount of mole/10 mL/kg” means as follows: for example “10 mmol/10 mL/kg” means that 10 mmol of a test compound per body-weight (1 kg) of a mouse was dispersed or dissolved in a solution (10 mL) for administration. The same applies hereinafter.
The solutions for administration prepared above were orally administered to mice (Balb/cA, male) not fasted each by use of an oral administration sonde.
The mice were anesthetized with isoflurane 0.5, 1, 2, 4 and 6 hours after administration and blood was taken from the facial vein by use of a specific needle (animal lancet) and a heparin-coated hematocrit tube.
The blood sampled was immediately centrifuged (13000 rpm, 2 minutes, 4° C.) to prepare the plasma samples. After proteins were removed from the plasma samples, the concentrations of the test compound in the plasma samples were measured by LC/MS/MS.
The value of “area under the curve” (AUC) of drug concentration in blood versus time was calculated using analysis software such as Phoenix (registered trademark) WinNonlin (registered trademark).
In Table 3, “Comparative Example 1” and “Comparative Example 2” represent the “compound (Br form) of Comparative Example 1” and the “compound (I form) of Comparative Example 2”, respectively. In Table 4, “Comparative Example 6” represents the “compound (C1 form) of Comparative Example 6”.

For the next data set, the system named is A431. Kind of data set: Growth suppression activity to human tumor cell line (Evaluation 2). It is filed as cell-based. As to conditions: Homo sapiens, A-431, 72 h, Human epidermoid carcinoma, A431, 3 days. As for the experimental part:
(§1) Human tumor cell lines different in type were suspended in mediums, seeded in individual wells of a multi-well plate and cultured. On the day after initiation of culture, serially diluted solutions of a compound were added. Culture was carried out for further 3 days. Cells were counted by a CellTiter-Glo (manufactured by Promega KK) in accordance with the protocol recommended by Promega KK. Cell viability was calculated in accordance with the equation shown below and the concentration (IC50 (nM)) of the compound at which 50% of cell growth is inhibited was obtained.
(§2) T: Intensity of light emitted from a well containing a compound
(§3) C: Intensity of light emitted from a well containing no compound

The subject of the next data set is A549. The data set is described as above. In kind it is cell-based. As to conditions: A549, 72 h, Human lung cancer, A549, 3 days. How it is done: as §1, §2, §3
In the next data set the test system is H1650. Described as above. In kind it is cell-based. As to conditions: NCI-H1650, 72 h, Human lung cancer, H1650, 3 days. As for the experimental part:
as §1, §2, §3

Another data set has as its system H2122. The data set is described as above. It is filed as cell-based. To be noted: NCI-H2122, 72 h, Human lung cancer, H2122, 3 days. How it is done: as §1, §2, §3
A further data set relates to H358. The data set is described as above. As to conditions: NCI-H358, 72 h, Human lung cancer, H358, 3 days. It is filed as cell-based. How it is done: as §1, §2, §3
A further data set concerns HCC827. Described as above. In kind it is cell-based. To be noted: Homo sapiens, HCC827, 72 h, Human lung cancer, HCC827, 3 days. How it is done:
as §1, §2, §3

In a further data set the test system is RKO. Described as above. It is filed as cell-based. As to conditions: 72 h, Human colorectal cancer, 3 days. As for the experimental part: as §1, §2, §3
The test system of another data set is SK-BR-3. Described as above. In kind it is cell-based. To be noted: Homo sapiens, SK-BR-3, 72 h, Human breast cancer, SK-BR-3, 3 days. As for the experimental part: as §1, §2, §3
In another data set the test system is A427. Kind of data set: Growth suppression activity to human tumor cell line (Evaluation 3). In kind it is cell-based. To be noted: A-427, 72 h; Human lung cancer, A427, 3 days. How it is done:
(§4) Human tumor cell lines different in type were suspended in mediums, seeded in individual wells of a multi-well plate and cultured. On the day after initiation of culture, serially diluted solutions of a compound were added. Culture was carried out for further 3 days. Cells were counted by a CellTiter-Glo (manufactured by Promega KK) in accordance with the protocol recommended by Promega KK. Cell viability was calculated in accordance with the equation shown below and the concentration (IC50 (nM)) of a compound at which 50% of cell growth is inhibited was obtained.
as §2, §3

In a further data set the test system is H520. The data set is described as above. It is filed as cell-based. To be noted: NCI-H520, 72 h; Human lung cancer, H520, 3 days. How it is done: as §4, §2, §3
Data set [2] relates to human brain tumor cell line (U-87 MG). The experiment in a line: Evaluation 1 of antitumor effect and toxicity in mouse (U-87 MG subcutaneous transplant). It is filed as in vivo, BALB/cA Jcl-nu/nu mice. As for the experimental part:
(§5) The day of grouping mice was determined Day 0.
IRs of Comparative Example 2-compound administration group and Example 1-compound administration group on the final day of evaluation (Day 6 in Comparative Example 2 and Day 13 in Example 1) are shown in FIG. 1 and BWC versus elapsed days is shown in FIG. 2.

For data set [3], the system named is human hematopoietic organ tumor cell line (MV-4-11). Kind of data set: Evaluation 3 of antitumor effect and toxicity in mouse (MV-4-11 subcutaneous transplant). It is filed as in vivo. As for the experimental part: as §5
On the final day of evaluation, the blood cell components (lymphocytes: LYMPH (Lymphocytes)) of individual groups were analyzed.

The test system of data set [4] is human brain tumor cell line (U-87 MG). The experiment in a line: Evaluation 2 of antitumor effect and toxicity in mouse (U-87 MG subcutaneous transplant). It is filed as in vivo, BALB/cA Jcl-nu/nu mice. As to conditions: Day 6, oral every day, Example 5 14.6 mg/kg/day vs Comparative Example 2 12 mg/kg/day. As for the experimental part:
as §5
In order to evaluate “effect versus toxicity”, a ratio based on IR and BWC (effect index) was obtained, and Example 5-compound administration group was compared to Comparative Example 2-compound administration group.
Effect indexes of Comparative Example 2-Compound (I form) and Example 5-compound administration groups on Day 6 are shown in FIG. 3.

Where [5] appears, read: U-87 MG, oral every day from Day 1, Example 1 15.4 mg/kg/day.
Setting [6] is: MV-4-11, oral every day from Day 1, Example 1 10.8 mg/kg/day.

Regarding `Nc1ncnc2c1c(Cl)cn2[C@@H]1O[C@H](CO)[C@@H](O)[C@@H]1F` [Comparative Example 6, (2R,3R,4S,5R)-5-(4-amino-5-chloro-7H-pyrrolo[2,3-d]pyrimidin-7-yl)-4-fluoro-2-(hydroxymethyl) tetrahydrofuran-3-ol], the AUC(0-t) in data set [1] came out at 2.07 µM·h. Also, the IC50 (in general, the concentration at which inhibition is half-maximal) in the data set with A431 was 124 nM; with A549, 54 nM; in the data set on H1650, 31 nM; in the data set on H2122 it was 58 nM; in the data set with H358 it was 273 nM; in the data set on HCC827 it was 795 nM. For the same compound, the IC50 with RKO amounted to 135 nM; with SK-BR-3, 88 nM.
On to `Nc1ncnc2c1c(I)cn2[C@@H]1O[C@H](CO)C(O)C1(F)F` (stereo partly drawn) [Comparative Example 7, (2R,3R,4S,5R)-5-(4-amino-5-iodo-7H-pyrrolo[2,3-d]pyrimidin-7-yl)-4,4-difluoro-2-(hydroxymethyl) tetrahydrofuran-3-ol, reference compound], for which the IC50 in the data set with A427 is 1140 nM; with H520 it was 465 nM.
As for `Nc1ncnc2c1c(I)cn2[C@@H]1O[C@H](CO)[C@@H](OC(=O)OC2CCCC2)[C@@H]1F` [Example 1, (2R,3R,4S,5R)-5-(4-amino-5-iodo-7H-pyrrolo[2,3-d]pyrimidin-7-yl)-4-fluoro-2-(hydroxymethyl)tetrahydrofuran-3-yl cyclopentyl carbonate], in [2] (setting [5]), the “antitumor effect (tumor-growth inhibition rate, IR)” value was “high antitumor effect” and the “effect on body weight (BWC)” value is listed as “mild”. Also, the “continuation of administration compared to Comparative Example 2-compound administration group” value in data set [2] (U-87 MG, oral every day, Example 1 15.4 mg/kg/day vs Comparative Example 2 12 mg/kg/day) was “longer”. The “final day of evaluation (administration continued as long as weight loss was acceptable, until 20% or more)” value in data set [2] (oral every day, Comparative Example 2 12 mg/kg/day, Example 1 15.4 mg/kg/day) amounted to 13 days. Besides, in data set [3] (setting [6]), the “antitumor effect (RTV)” value is reported as “remarkable antitumor effect (tumor regression was confirmed)”; the “effect on body weight and hematological toxicity (BWC, lymphocytes T/C %)” value is reported as “low”. Besides, the “continuation of administration compared to Comparative Example 2-compound administration group” value in [3] (MV-4-11, oral every day, Example 1 10.8 mg/kg/day vs Comparative Example 2 12 mg/kg/day) is “longer”.
Turning to `CC(C)OC(=O)O[C@H]1[C@H](F)[C@H](n2cc(I)c3c(N)ncnc32)O[C@@H]1CO` [Example 5, (2R,3R,4S,5R)-5-(4-Amino-5-iodo-7H-pyrrolo[2,3-d]pyrimidin-7-yl)-4-fluoro-2-(hydroxymethyl)tetrahydrofuran-3-yl isopropyl carbonate], in [4], the “effect versus toxicity (effect index, ratio based on IR and BWC)” value was “high compared to that of Comparative Example 2-compound administration group”.

Source of the values: patent US20220233566A1, “NOVEL CARBONATE COMPOUND HAVING PYRROLOPYRIMIDINE SKELETON OR PHARMACEUTICALLY ACCEPTABLE SALT THEREOF” (TAIHO PHARMACEUTICAL CO., LTD., priority 2019, published 2022).
